One compound from patent US8044023B2, “Hepatitis C virus inhibitors” (Bristol-Myers Squibb Company, priority 2008, dated 2011) can be followed below.

For one assay, the system named is HCV replicon. As to the kind of experiment: cell-based HCV replicon assay. As to conditions: Hepatitis C virus. How it is done:
(§1) HCV NS3/4A protease complex enzyme assays and cell-based HCV replicon assays can be utilized in the present disclosure, and can be prepared, conducted and validated as described in the art (see, for Example, WO 2008/064061).
(§2) Compound 1 was tested as described above and found to have an IC50 (NS3/4A BMS Strain) of 4 nM. The EC50 is 5 nM.
A general note: Replicon systems follow genome replication, usually without infectious particles.

Another assay has as its target NS3/4A BMS Strain (UniProt P27958). As to the kind of experiment: HCV NS3/4A protease complex enzyme assay. In kind it is biochemical, Hepatitis C virus. Here is the method:
as §1, §2

Chain of NS3/4A BMS Strain (P27958 1027-1657): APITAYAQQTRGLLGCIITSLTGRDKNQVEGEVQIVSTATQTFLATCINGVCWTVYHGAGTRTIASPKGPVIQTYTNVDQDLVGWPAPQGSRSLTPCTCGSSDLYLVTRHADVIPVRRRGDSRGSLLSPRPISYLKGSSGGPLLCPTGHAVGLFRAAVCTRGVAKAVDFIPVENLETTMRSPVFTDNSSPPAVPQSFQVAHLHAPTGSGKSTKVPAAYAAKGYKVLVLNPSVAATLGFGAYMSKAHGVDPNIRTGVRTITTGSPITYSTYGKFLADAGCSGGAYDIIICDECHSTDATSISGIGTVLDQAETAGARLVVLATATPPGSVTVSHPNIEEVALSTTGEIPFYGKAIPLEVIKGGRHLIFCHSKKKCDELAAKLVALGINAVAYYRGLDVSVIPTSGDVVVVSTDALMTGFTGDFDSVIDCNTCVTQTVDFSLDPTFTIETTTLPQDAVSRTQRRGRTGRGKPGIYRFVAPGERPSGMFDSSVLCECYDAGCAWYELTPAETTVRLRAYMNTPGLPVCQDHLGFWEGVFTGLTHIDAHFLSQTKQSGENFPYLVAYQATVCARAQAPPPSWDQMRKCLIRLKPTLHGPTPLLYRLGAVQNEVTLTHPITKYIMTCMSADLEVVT

For `CCCCS[C@@]1(c2ccc(-c3ccccc3)cc2)C[C@H]2C(=O)N[C@]3(C(=O)NS(=O)(=O)C4CC4)C[C@H]3/C=C\CCCCC[C@H](NC(=O)OC(C)(C)C)C(=O)N2C1` [Compound 1, tert-butyl (2R,6S,13aS,14aR,16aS,Z)-2-(biphenyl-4-yl)-2-(butylthio)-14a-(cyclopropylsulfonylcarbamoyl)-5,16-dioxo-1,2,3,5,6,7,8,9,10,11,13a,14,14a,15,16,16a-hexadecahydrocyclopropa[e]pyrrolo[1,2-a][1,4]diazacyclopentadecin-6-ylcarbamate], it took 5 nM to reach a half-maximal effect in the assay with HCV replicon (EC50). Further, on NS3/4A BMS Strain, the midpoint of inhibition, the IC50, lay at 4 nM.
